Laboratory results published in US6200994A, “1,4-Disubstituted cyclohexane derivatives for the treatment of depression” (American Home Products Corp, priority 1999, dated 2001).
pKi: −log10 of the molar value.

Assays:
human 5-HT1A receptor = molecular target: T1, human 5-HT1A receptor (Homo sapiens, UniProt P08908); assay: [3H]8-OH-DPAT binding to human 5-HT1A receptor in CHO cell membranes
T1 construct: expressed in transfected cells
T1 sequence (P08908 1-422): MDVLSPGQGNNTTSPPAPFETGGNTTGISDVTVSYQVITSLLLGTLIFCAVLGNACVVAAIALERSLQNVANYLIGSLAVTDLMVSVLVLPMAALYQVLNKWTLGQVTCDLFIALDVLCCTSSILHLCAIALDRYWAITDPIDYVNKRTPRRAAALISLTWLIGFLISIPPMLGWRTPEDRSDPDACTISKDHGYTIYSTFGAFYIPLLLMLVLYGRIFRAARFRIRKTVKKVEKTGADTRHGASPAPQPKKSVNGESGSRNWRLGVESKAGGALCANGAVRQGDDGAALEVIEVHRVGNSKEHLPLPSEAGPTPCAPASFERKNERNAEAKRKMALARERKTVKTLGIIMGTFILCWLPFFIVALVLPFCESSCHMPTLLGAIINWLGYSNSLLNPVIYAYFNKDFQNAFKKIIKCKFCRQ
Protocol: The PCR cloning of the human 5-HT1A receptor subtype from a human genomic library has been described previously by Chanda et al., Mol. Pharmacol., 43:516 (1993). A stable Chinese hamster ovary cell line expressing the human 5-HT1A receptor subtype (5-HT1A.CHO cells) was employed throughout this study. Cells were maintained in DMEM supplemented with 10% fetal calf serum, non-essential amino acids and penicillin/ streptomycin.
Cells were grown to 95-100% confluency as a monolayer before membranes were harvested for binding studies. Cells were gently scraped from the culture plates, transferred to centrifuge tubes, and washed twice by centrifugation (2000 rpm for 10 min., 4° C.) in buffer (50 mM Tris; pH 7.5). The resulting pellets were aliquoted and maintained at -80.C. On the day of assay, the cells were thawed on ice, and resuspended in buffer. Studies were conducted using [^3 H]8-OH-DPAT as the radioligand. The binding assay was performed in 96 well microtiter plates in a final total volume of 250 μL of buffer. Comparison experiments were performed by using 7 concentrations of unlabelled drug and a final ligand concentration of 1.5 nM. Non-specific binding was determined in the presence of 10 μM 5HT. Saturation analysis was conducted by using [^3 H]8-OH-DPAT at concentrations ranging from 0.3-30 nM. […]

serotonin transporter = molecular target: T2, serotonin transporter (Rattus norvegicus, UniProt P31652); assay: 3H-paroxetine binding, affinity for the serotonin transporter (ST) in frontal cortical membranes; parameters: species or system male Sprague-Dawley rats; conditions: 1 h, @ 100 nM
T2 construct: frontal cortical membranes prepared from male Sprague-Dawley rats; from tissue; host or cells: frontal cortex membranes of male Sprague-Dawley rats
T2 sequence (P31652 whole entry): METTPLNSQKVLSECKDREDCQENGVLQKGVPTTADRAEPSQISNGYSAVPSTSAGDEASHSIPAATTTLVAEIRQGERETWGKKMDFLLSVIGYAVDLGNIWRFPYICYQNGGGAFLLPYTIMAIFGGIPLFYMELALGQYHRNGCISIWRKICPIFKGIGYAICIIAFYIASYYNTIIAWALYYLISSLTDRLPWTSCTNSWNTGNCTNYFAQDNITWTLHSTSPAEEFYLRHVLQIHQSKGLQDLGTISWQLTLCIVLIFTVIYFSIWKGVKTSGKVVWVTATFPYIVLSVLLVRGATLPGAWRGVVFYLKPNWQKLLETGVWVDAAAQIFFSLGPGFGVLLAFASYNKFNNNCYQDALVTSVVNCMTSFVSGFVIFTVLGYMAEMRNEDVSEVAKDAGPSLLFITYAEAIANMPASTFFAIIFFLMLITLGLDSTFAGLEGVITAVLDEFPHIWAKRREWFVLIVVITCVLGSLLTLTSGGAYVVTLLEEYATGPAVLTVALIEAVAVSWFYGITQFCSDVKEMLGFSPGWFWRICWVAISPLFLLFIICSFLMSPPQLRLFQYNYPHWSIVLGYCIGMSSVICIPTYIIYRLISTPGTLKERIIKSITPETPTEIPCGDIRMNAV
Protocol: A protocol similar to that used by Cheetham et al., Neuropharmacol., 32:737 (1993) was used to determine the affinity of compounds for the serotonin transporter. Briefly, frontal cortical membranes prepared from male Sprague-Dawley rats were incubated with ^3 H-paroxetine (0.1 nM) for 60 min at 25° C. All tubes also contained either vehicle, test compound (one to eight concentrations), or a saturating concentration of fluoxetine (10 μM) to define […]. All reactions were terminated by the addition of ice cold Tris buffer followed by rapid filtration using a Tom Tech filtration device to separate bound from free ^3 H-paroxetine. Bound radioactivity was quantitated using a Wallac 1205 Beta Plate® counter. Nonlinear regression analysis was used to determine IC50 values which were converted to Ki values using the method set forth in Cheng and Prusoff, Biochem. Pharmacol., 22:3099 (1973) (Ki=IC50/((Radioligand conc.)/(1+KD)).

Question: `COc1ccsc1C1=CCN([C@H]2CC[C@@H](c3c[nH]c4ccc(F)cc43)CC2)CC1` [Example 1, 5-Fluoro-3-{(1,4-cis)-4-[4-(3-methoxy-thiophen-2-yl)-3,6-dihydro-2H-pyridin-1-yl]-cyclohexyl}-1H-indole] was tested. Which inhibition at 1 µM (human 5-HT1A receptor; 0.5 h, @ 1000 nM, [3H]8-OH-DPAT) did it give?
Answer: Its inhibition at 1 µM is 48%.

Question: How did the pKi (human 5-HT1A receptor) turn out when `COc1ccsc1C1=CCN([C@H]2CC[C@H](c3c[nH]c4ccc(F)cc43)CC2)CC1` [Example 2, 5-Fluoro-3-{(1,4-trans)-4-[4-(3-methoxy-thiophen-2-yl)-3,6-dihydro-2H-pyridin-1-yl]-cyclohexyl}-1H-indole] was run?
Answer: Its pKi is 7.69.

Question: And the inhibition at 0.1 µM (serotonin transporter)?
Answer: The inhibition at 0.1 µM was 18%.
